Measurements published in BindingDB's records for patent US20250313563 (The Broad Institute, 2025).
Values joined by “and” are separate entries in the source; they are usually repeats but may differ in a detail not shown here. Equal values may be shown once.

Legend:
[1] = molecular target: Glycogen synthase kinase-3 alpha (Homo sapiens, UniProt P49840); test: TR-FRET Assay
Procedure, shortened: (§1)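 TR-FRET readout: streptavidin-d2 (40 nM in added detection mix) plus Tb-anti-pSer641 Ab (2 nM in mix). Steps were 30 min compound preincubation, kinase reaction, then EDTA stop.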

[2] = molecular target: Glycogen synthase kinase-3 beta (Homo sapiens, UniProt P49841); test: TR-FRET Assay
Procedure, shortened: as §1

Glycogen synthase kinase-3 alpha, sequence (P49840 whole entry): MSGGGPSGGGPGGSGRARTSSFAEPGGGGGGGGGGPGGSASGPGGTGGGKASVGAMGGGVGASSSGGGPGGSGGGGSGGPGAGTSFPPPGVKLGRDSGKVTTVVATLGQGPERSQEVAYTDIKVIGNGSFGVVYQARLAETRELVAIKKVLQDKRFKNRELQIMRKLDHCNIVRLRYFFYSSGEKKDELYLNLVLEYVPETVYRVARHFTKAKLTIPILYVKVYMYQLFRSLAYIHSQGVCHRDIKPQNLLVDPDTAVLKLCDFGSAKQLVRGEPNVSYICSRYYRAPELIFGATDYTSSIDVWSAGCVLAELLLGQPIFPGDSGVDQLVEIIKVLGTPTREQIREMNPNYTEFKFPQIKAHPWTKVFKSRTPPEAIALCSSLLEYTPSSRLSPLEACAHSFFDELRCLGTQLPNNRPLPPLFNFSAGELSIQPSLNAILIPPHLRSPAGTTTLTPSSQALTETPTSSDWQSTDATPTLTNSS
Glycogen synthase kinase-3 beta, sequence (P49841 whole entry): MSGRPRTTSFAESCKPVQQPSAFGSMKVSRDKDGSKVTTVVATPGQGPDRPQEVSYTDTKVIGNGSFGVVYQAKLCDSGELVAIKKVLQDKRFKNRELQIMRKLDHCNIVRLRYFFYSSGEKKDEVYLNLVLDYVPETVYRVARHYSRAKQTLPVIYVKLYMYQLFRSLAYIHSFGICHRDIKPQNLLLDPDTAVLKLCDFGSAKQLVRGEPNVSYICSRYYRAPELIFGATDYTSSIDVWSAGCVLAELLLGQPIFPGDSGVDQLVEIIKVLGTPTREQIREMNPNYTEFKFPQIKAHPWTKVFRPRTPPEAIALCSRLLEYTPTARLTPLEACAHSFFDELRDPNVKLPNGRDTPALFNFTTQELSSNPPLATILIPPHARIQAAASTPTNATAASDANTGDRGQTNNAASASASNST

Compound | IC50 [1] | IC50 [2]
CC[C@@]1(c2cccc(-c3cncn3C)c2)C2=CN=NC2NC2=C1C(=O)NC(C)(C)C2 (stereo partly specified) [US20250313563, Compound 947820] | 0.1 to 1 µM | 0.1 to 1 µM
CCC1(c2cccc(N3CCNCC3)c2)C2=CN=NC2NC2=C1C(=O)CC(C)(C)C2 (stereo unspecified) [US20250313563, Compound 806604] | > 1.67 µM | > 5 µM
CC[C@@]1(c2cccc(S(=O)(=O)C(C)C)c2)C2=C(CC(C)(C)NC2=O)NC2N=NC(C(F)(F)F)=C21 (stereo partly specified) [US20250313563, Compound 948423] | < 0.1 µM | 0.1 to 1 µM
CC[C@@]1(c2cccc(-c3cnn4c3CC(C)(C)CC4)c2)C2=CN=NC2NC2=C1C(=O)NC(C)(C)C2 (stereo partly specified) [US20250313563, Compound 950564] | < 0.1 µM | 0.1 to 1 µM
C[C@H]1C[C@@]2(CCN1S(=O)(=O)c1ccn(C)n1)C1=C(N=NC1)NC1=C2C(=O)CC(C)(C)C1 [US20250313563, Compound 926832] | < 0.1 µM | 0.1 to 1 µM
CC[C@]1(c2cccc(N(C)c3cccc(C(C)(F)F)c3)c2)C2=CN=NC2NC2=C1C(=O)CC(C)(C)C2 (stereo partly specified) [US20250313563, Compound 927345] | > 5 µM | > 5 µM
CC[C@@]1(c2cccc(N3CCOCC3)c2)C2=C(CC(C)(C)CC2=O)NC2N=NC(C)=C21 (stereo partly specified) [US20250313563, Compound 889582] | 0.1 to 1 µM | 1 to 5 µM
CC1(C)CC(=O)C2=C(C1)NC1=C(CN=N1)C21CN(CCc2ccccc2)C1 [US20250313563, Compound 929441] | > 5 µM | > 5 µM
CC[C@@]1(c2cccc(-c3c(C#N)c(C)nn3C)c2)C2=CN=NC2NC2=C1C(=O)NC(C)(C)C2 (stereo partly specified) [US20250313563, Compound 951844] | < 0.1 µM | 0.1 to 1 µM
CCC1(c2cccc(C(F)(F)F)c2)C2=CN=NC2NC2=C1C(=O)NCC2C (stereo unspecified) [US20250313563, Compound 919318] | < 0.1 µM | 0.1 to 1 µM
CC[C@]1(c2cccc(-c3ccncc3Cl)c2)C2=CN=NC2NC2=C1C(=O)NC(C)(C)C2 (stereo partly specified) [US20250313563, Compound 948020] | 0.1 to 1 µM | 0.1 to 1 µM
CC[C@]1(c2cccc(-c3ccnn3C)c2)C2=C(CC(C)(C)CC2=O)NC2N=NC(C(F)(F)F)=C21 (stereo partly specified) [US20250313563, Compound 947365] | 0.1 to 1 µM | 1 to 5 µM
CCC1(c2cccc(-c3cnn4c3CCCC4)c2)C2=CN=NC2NC2=C1C(=O)NC(C)(C)C2 (stereo unspecified) [US20250313563, Compound 945603] | < 0.1 µM | 0.1 to 1 µM
CC[C@@]1(c2cccc(S(C)(=O)=O)c2)C2=C(CC(C)(C)NC2=O)NC2N=NC(C(F)(F)F)=C21 (stereo partly specified) [US20250313563, Compound 948422] | 0.1 to 1 µM | 0.1 to 1 µM
CC[C@@]1(c2ccccc2)C2=CN=NC2NC2=C1C(=O)CC(C)(C)[C@@H]2F (stereo partly specified) [US20250313563, Compound 957199] | > 5 µM | > 5 µM
CC1(C)CC(=O)C2=C(C1)NC1=C(CN=N1)C21CCC(c2ccccc2)CC1 (stereo unspecified) [US20250313563, Compound 874975] | < 0.1 µM | < 0.1 µM
CC[C@]1(c2cccc(-c3cnn(CCOC)c3)c2)C2=C(CC(C)(C)CC2=O)NC2N=NC(C)=C21 (stereo partly specified) [US20250313563, Compound 913042] | > 5 µM | > 5 µM
CCC1(c2cccc(-c3ccncc3CO)c2)C2=CN=NC2NC2=C1C(=O)CC(C)(C)C2 (stereo unspecified) [US20250313563, Compound 943539] | < 0.1 µM | < 0.1 µM
CC[C@@]1(c2ccc(OC(C)C)cc2)C2=C(CC(C)(C)CC2=O)NC2N=NC(C(F)(F)F)=C21 (stereo partly specified) [US20250313563, Compound 947873] | 0.1 to 1 µM | 0.1 to 1 µM

Compound | IC50 [1] | IC50 [2]
CC[C@]1(c2cccc(OC)c2)C2=CN=NC2NC2=C1C(=O)CC(C)(C)C2 (stereo partly specified) [US20250313563, Compound 811561] | 1 to 5 µM | > 5 µM
CCC1(c2cccc(N3CCCc4ncccc43)c2)C2=CN=NC2NC2=C1C(=O)CC(C)(C)C2 (stereo unspecified) [US20250313563, Compound 889639] | < 0.1 µM | < 0.1 µM and 0.1 to 1 µM
CC[C@]1(c2cccc(C(F)(F)F)c2)C2=C(N=NC2)NC2=C1C(=O)C(C)(C)C2 [US20250313563, Compound 950272] | < 0.1 µM | 0.1 to 1 µM
CN(C)C(=O)C1CCC2(CC1)C1=C(N=NC1)NC1=C2C(=O)CC(C)(C)C1 (stereo unspecified) [US20250313563, Compound 945395] | 0.1 to 1 µM | 1 to 5 µM
CC[C@@]1(c2cccc([C@@H](C)c3ncccn3)c2)C2=CN=NC2NC2=C1C(=O)CC(C)(C)C2 (stereo partly specified) [US20250313563, Compound 948061] | 0.1 to 1 µM | 1 to 5 µM
CCC1(c2cccc(C3CCOCC3)c2)C2=CN=NC2NC2=C1C(=O)CC(C)(C)C2 (stereo unspecified) [US20250313563, Compound 791273] | < 0.1 µM | 0.1 to 1 µM
O=C1C2=C(NC3N=NC=C3C23CCOCC3)[C@@H]2CC[C@H]1C2 (stereo partly specified) [US20250313563, Compound 912081] | 0.1 to 1 µM | 1 to 5 µM
CC[C@]1(c2cccc(C(F)(F)F)c2)C2=CN=NC2NC2=C1C(=O)N[C@@H](C)C2 (stereo partly specified) [US20250313563, Compound 912097] | 0.1 to 1 µM | > 5 µM
CC(C)S(=O)(=O)N1CCC2(CC1)C1=C(N=NC1)NC1=C2C(=O)CC(C)(C)[C@H]1F [US20250313563, Compound 951701] | < 0.1 µM and 0.1 to 1 µM | < 0.1 µM and 1 to 5 µM
CC1(C)CC(=O)C2=C(C1)NC1=C(CN=N1)[C@@]21CCCOCC1 [US20250313563, Compound 874536] | 0.1 to 1 µM | 1 to 5 µM
CC[C@@]1(c2cccc(-c3cn(C)nc3C)c2)C2=C(CC(C)(C)NC2=O)NC2N=NC(F)=C21 (stereo partly specified) [US20250313563, Compound 949185] | < 0.1 µM | < 0.1 µM and 1 to 5 µM
CCC1(c2ccc(F)cc2)C2=C(N=NC2)NC2=C1C(=O)CC(C)(C)C2 (stereo unspecified) [US20250313563, Compound 772965] | 1 to 5 µM | > 5 µM
CC1(C)CC(=O)C2=C(C1)NC1=C(CN=N1)[C@]2(C)c1cccc(-c2ccccc2)c1 [US20250313563, Compound 801367] | < 0.1 µM | 0.1 to 1 µM
CCN(c1cccc(C2(CC)C3=CN=NC3NC3=C2C(=O)CC(C)(C)C3)c1)c1cccnc1C (stereo unspecified) [US20250313563, Compound 885367] | 0.1 to 1 µM | 1 to 5 µM
CC[C@]1(c2cccc(N(C)c3ncccn3)c2)C2=C(CC(C)(C)NC2=O)NC2N=NC(C(F)F)=C21 (stereo partly specified) [US20250313563, Compound 951736] | < 0.1 µM | 0.1 to 1 µM
CCN(c1cccnc1)c1cccc([C@@]2(CC)C3=CN=NC3NC3=C2C(=O)CC(C)(C)C3)c1 (stereo partly specified) [US20250313563, Compound 917088] | 0.1 to 1 µM | 1 to 5 µM
CCC1(c2cccc(C3CCCC3)c2)C2=CN=NC2NC2=C1C(=O)CC(C)(C)C2 (stereo unspecified) [US20250313563, Compound 949082] | < 0.1 µM | < 0.1 µM
CCC1(CC)C2=C(CC(C)(C)CC2=O)NC2=C1C(C)N=N2 (stereo unspecified) [US20250313563, Compound 786061] | 0.1 to 1 µM | > 1.67 µM

The remaining lines, values ahead:

IC50 [1] | IC50 [2] | Compound
1 to 5 µM | > 5 µM | CCC1(c2ccccc2)C2=C(N=NC2)NC2=C1C(=O)CSC2 (stereo unspecified) [US20250313563, Compound 801406]
1 to 5 µM | > 5 µM | CC[C@]1(c2cccc(-c3ccncc3O)c2)C2=CN=NC2NC2=C1C(=O)CC(C)(C)C2 (stereo partly specified) [US20250313563, Compound 945728]
< 0.1 µM | < 0.1 µM | COc1cccc(S(=O)(=O)N2CC[C@]3(C2)C2=C(N=NC2)NC2=C3C(=O)CC(C)(C)C2)c1 [US20250313563, Compound 951790]
0.1 to 1 µM | 1 to 5 µM | CC[C@]1(c2cccc(C(F)(F)F)c2)C2=CN=NC2NC2=C1C(=O)N(Cc1ccccc1)CC2 (stereo partly specified) [US20250313563, Compound 912005]
< 0.1 µM | < 0.1 µM | C[C@@H]1C[C@]2(CCN1S(=O)(=O)c1ccn(C)n1)C1=C(N=NC1)NC1=C2C(=O)CC(C)(C)C1 [US20250313563, Compound 917161]
0.1 to 1 µM | 1 to 5 µM | CC[C@@]1(c2cccc(-c3ccnc(OC)c3)c2)C2=C(CC(C)(C)CC2=O)NC2N=NC(C)=C21 (stereo partly specified) [US20250313563, Compound 913016]
1 to 5 µM | 0.1 to 1 µM | CC(C)(C)CC1=C2C(N=N1)NC1=C(C(=O)CC(C)(C)C1)[C@@]21COc2ccccc21 (stereo partly specified) [US20250313563, Compound 117093]
< 0.1 µM | 0.1 to 1 µM | CC[C@@]1(c2cccc(N(C)C(=O)c3ccn(C)n3)c2)C2=CN=NC2NC2=C1C(=O)CC(C)(C)C2 (stereo partly specified) [US20250313563, Compound 929442]
< 0.1 µM | < 0.1 µM | Cn1ccc(S(=O)(=O)N2CC[C@]3(C2)C2=C(N=NC2)NC2=C3C(=O)CC(C)(C)C2)n1 [US20250313563, Compound 945714]
0.1 to 1 µM | 0.1 to 1 µM | CC[C@]1(c2ccccc2)C2=CN=NC2NC2=C1C(=O)C[C@@](C)(C(F)(F)F)C2 (stereo partly specified) [US20250313563, Compound 819568]
0.1 to 1 µM | > 5 µM | CC[C@@]1(c2cccc(-c3c4c(nn3C)CCCC4)c2)C2=CN=NC2NC2=C1C(=O)NC(C)(C)C2 (stereo partly specified) [US20250313563, Compound 948652]
< 0.1 µM | < 0.1 µM | CC1(C)CC(=O)C2=C(C1)NC1=C(CN=N1)[C@]21CCN(S(=O)(=O)c2cccc(F)c2)C1 [US20250313563, Compound 943488]
1 to 5 µM | 0.1 to 1 µM | CC[C@]1(c2cccc(-c3ccncc3)c2)C2=CN=NC2NC2=C1C(=O)CC(C)(C)[C@@H]2F (stereo partly specified) [US20250313563, Compound 959341]
1 to 5 µM | > 5 µM | CC[C@]1(c2cccc(C(F)F)c2)C2=CN=NC2NC2=C1C(=O)NC(C)(C)C2 (stereo partly specified) [US20250313563, Compound 949007]
0.1 to 1 µM | 1 to 5 µM | CC[C@@]1(c2cccc(C(F)(F)F)c2)C2=C(N=NC2)NC2=C1C(=O)NC2 [US20250313563, Compound 917158]
< 0.1 µM | 0.1 to 1 µM | CC[C@]1(c2cc(N(C)C(C)=O)ccc2F)C2=CN=NC2NC2=C1C(=O)CC(C)(C)C2 (stereo partly specified) [US20250313563, Compound 929450]
